In this assay the test system is normal human keratinocytes. In words: Proliferation of normal human keratinocytes cultured as a monolayer (BrdU test; score versus epinephrine). The assay is classed as cell-based. To be noted: at 10^-5 M; keratinocyte monolayer; 72 h. The method, then:
Study of the effect of 1,3,5-trimethoxybenzene on the proliferation of normal human keratinocytes cultured as a monolayer:
The products are tested on 2nd passage normal human keratinocytes cultured in KGM medium (serum-free defined medium sold by the company Clonetics). The range of concentrations is between 10^-4 M and 10^-7 M. The products are tested twice on 2 different plates.
250 ng/ml epinephrine is employed as positive control of the proliferation.
The products are dissolved in dimethyl sulphoxide (DMSO). A 1×10^-2 M mother solution is prepared in DMSO. The following dilutions are carried out in KGM.
The keratinocytes are seeded at 6000 cells/cm^2. After culturing for 24 h, the product is applied to the cells for 72 h. The medium is replaced after treatment for 48 h.
BrdU kit (Boehringer Mannheim).
On the second day of treatment, a thymidine analogue (BrdU) is added to the culture medium overnight. This analogue makes it possible to label the cells during DNA synthesis. On the third day of treatment, the cells which have incorporated BrdU are identified with an anti-BrdU antibody.
For each product, the score (see table) is attributed as a function of the result obtained with respect to epinephrine (positive control for the proliferation).

Turning to `COc1cc(OC)cc(OC)c1` [1,3,5-Trimethoxybenzene, 1,3,5-trimethoxybenzene], the Proliferative effect result is “induces proliferation of the keratinocytes”.

The record behind these values is patent US6054137A, “Promoting epidermal renewal with phloroglucinol” (Societe L'Oreal S.A., priority 1997, dated 2000).
